Reference: US11793849B2, “Method of Chinese herbal medicine extract used for treating multiple diseases caused by drug resistant bacteria infection” (priority 2016, dated 2023)

Tested on: MDRAB
Experiment: Checkerboard assay (combined-use MIC, FIC)
Assay type: cell-based, Acinetobacter baumannii
Settings: for FIC, all strains / MIC50 of the antibiotic after combined use / MIC90 of the antibiotic after combined use / reduction of the antibiotic's MIC50 vs single use / reduction of the antibiotic's MIC90 vs single use / share of strains with FIC ≤ 0.5: 20 MDRABs
Experimental: Test methods of the sensibilization effects of the test product to similar antibiotics: it is operated by referring to a checkerboard assay recommended by NCCLS.
The checkerboard assay is performed in a 96-pore sterile culture plate.
Calculation of a Fractional Inhibitory Concentration (FIC): FIC=S20b combined-use MIC/S20b single-use MIC+antibiotic combined-use MIC/antibiotic single-use MIC. By calculating the FIC, the combined antibacterial interaction between the EA and the antibiotic is evaluated, with synergistic effect for FIC≤0.5, additive effect for 0.5<FIC≤1, indifferent effect for 1<FIC≤2 and antagonistic effect for FIC>2. According to a sterile growth pore, the optimum concentration ratio between the EA and the antibiotic is founded out. At last, the effect of the EA to strengthen the efficacy of the antibiotic is evaluated.

[1] = antibiotic with 60% ethanol extract
[2] = antibiotic with 95% ethanol extract
[3] = antibiotic with EA (10% ethanol extract)
[4] = antibiotic with EA (water extract)

Substance: Polymycin B [POLB]
- FIC, all strains [1]: ≤ 2
- MIC50 of the antibiotic after combined use [1]: 0.5 µg/mL
- MIC90 of the antibiotic after combined use [1]: 4 µg/mL
- reduction of the antibiotic's MIC50 vs single use [1]: 87.5%
- reduction of the antibiotic's MIC90 vs single use [1]: 75%
- share of strains with FIC ≤ 0.5 [1]: 15%
- FIC, all strains [2]: ≤ 2
- MIC50 of the antibiotic after combined use [2]: 1 µg/mL
- MIC90 of the antibiotic after combined use [2]: 4 µg/mL
- reduction of the antibiotic's MIC50 vs single use [2]: 75%
- reduction of the antibiotic's MIC90 vs single use [2]: 75%
- share of strains with FIC ≤ 0.5 [2]: 20%
- FIC, all strains [3]: ≤ 2
- MIC50 of the antibiotic after combined use [3]: 1 µg/mL
- MIC90 of the antibiotic after combined use [3]: 4 µg/mL
- reduction of the antibiotic's MIC50 vs single use [3]: 75%
- reduction of the antibiotic's MIC90 vs single use [3]: 75%
- share of strains with FIC ≤ 0.5 [3]: 15%
- FIC, all strains [4]: ≤ 2
- MIC50 of the antibiotic after combined use [4]: 1 µg/mL
- MIC90 of the antibiotic after combined use [4]: 4 µg/mL
- reduction of the antibiotic's MIC50 vs single use [4]: 75%
- reduction of the antibiotic's MIC90 vs single use [4]: 75%
- share of strains with FIC ≤ 0.5 [4]: 25%
- combined-use MIC (strain A1, EA (10% ethanol extract) with POLB): 4 µg/mL
- combined-use MIC (strain A1, EA (60% ethanol extract) + POLB combined): 4 µg/mL
- combined-use MIC (strain A1, EA (95% ethanol extract) + POLB combined): 4 µg/mL
- combined-use MIC (strain A1, EA (water extract) with POLB): 4 µg/mL
- single-use MIC (strain A1, EA=60% ethanol extract): 8 µg/mL
- single-use MIC (strain A1, EA=95% ethanol extract): 8 µg/mL
- combined-use MIC (strain A2, EA (10% ethanol extract) with POLB): 1 µg/mL
- combined-use MIC (strain A2, EA (60% ethanol extract) + POLB combined): 0.5 µg/mL
- combined-use MIC (strain A2, EA (95% ethanol extract) + POLB combined): 0.5 µg/mL
- combined-use MIC (strain A2, EA (water extract) with POLB): 1 µg/mL
- single-use MIC (strain A2, EA=60% ethanol extract): 2 µg/mL
- single-use MIC (strain A2, EA=95% ethanol extract): 2 µg/mL
- combined-use MIC (strain A3, EA (10% ethanol extract) with POLB): 1 µg/mL
- combined-use MIC (strain A3, EA (60% ethanol extract) + POLB combined): 1 µg/mL
- combined-use MIC (strain A3, EA (95% ethanol extract) + POLB combined): 1 µg/mL
- combined-use MIC (strain A3, EA (water extract) with POLB): 0.5 µg/mL
- single-use MIC (strain A3, EA=60% ethanol extract): 2 µg/mL
- single-use MIC (strain A3, EA=95% ethanol extract): 2 µg/mL
- combined-use MIC (strain A4, EA (10% ethanol extract) with POLB): 1 µg/mL
- combined-use MIC (strain A4, EA (60% ethanol extract) + POLB combined): 1 µg/mL
- combined-use MIC (strain A4, EA (95% ethanol extract) + POLB combined): 1 µg/mL
- combined-use MIC (strain A4, EA (water extract) with POLB): 0.5 µg/mL
- single-use MIC (strain A4, EA=60% ethanol extract): 2 µg/mL
- single-use MIC (strain A4, EA=95% ethanol extract): 2 µg/mL
- single-use MIC (strain A5 (printed AS in tables A43, A45), EA=95% ethanol extract): 4 µg/mL
- combined-use MIC (strain A5, EA (10% ethanol extract) with POLB): 1 µg/mL
- combined-use MIC (strain A5, EA (60% ethanol extract) + POLB combined): 2 µg/mL
- combined-use MIC (strain A5, EA (water extract) with POLB): 0.5 µg/mL
- single-use MIC (strain A5, EA=60% ethanol extract): 4 µg/mL
- combined-use MIC (strain A6, EA (10% ethanol extract) with POLB): 1 µg/mL
- combined-use MIC (strain A6, EA (60% ethanol extract) + POLB combined): 2 µg/mL
- combined-use MIC (strain A6, EA (95% ethanol extract) + POLB combined): 2 µg/mL
- combined-use MIC (strain A6, EA (water extract) with POLB): 2 µg/mL
- single-use MIC (strain A6, EA=60% ethanol extract): 8 µg/mL
- single-use MIC (strain A6, EA=95% ethanol extract): 8 µg/mL
- combined-use MIC (strain A7, EA (10% ethanol extract) with POLB): 1 µg/mL
- combined-use MIC (strain A7, EA (60% ethanol extract) + POLB combined): 2 µg/mL
- combined-use MIC (strain A7, EA (95% ethanol extract) + POLB combined): 2 µg/mL
- combined-use MIC (strain A7, EA (water extract) with POLB): 1 µg/mL
- single-use MIC (strain A7, EA=60% ethanol extract): 4 µg/mL
- single-use MIC (strain A7, EA=95% ethanol extract): 4 µg/mL
- combined-use MIC (strain A8, EA (10% ethanol extract) with POLB): 0.0625 µg/mL
- combined-use MIC (strain A8, EA (60% ethanol extract) + POLB combined): 0.0625 µg/mL
- combined-use MIC (strain A8, EA (95% ethanol extract) + POLB combined): 1 µg/mL
- combined-use MIC (strain A8, EA (water extract) with POLB): 0.0625 µg/mL
- single-use MIC (strain A8, EA=60% ethanol extract): 8 µg/mL
- single-use MIC (strain A8, EA=95% ethanol extract): 8 µg/mL
- combined-use MIC (strain A9, EA (10% ethanol extract) with POLB): 0.0625 µg/mL
